From patent publication US12643858B2 (Inipharm, Inc., priority 2020, dated 2026)
pIC50: −log10 of the molar value.

Each compound was assayed against T1, HSD17B13 enzyme (Homo sapiens, UniProt Q7Z5P4) (assay: NADH detection assay (fluorescence based LTB3 assay) for HSD17B13 activity). Details: substrate 25 μM LTB3, 3 mM NAD+, 125 nM HSD17B13 enzyme, 1 hour at 26.5° C.
T1 construct: His; made in house; host or cells: E. coli
T1 sequence (Q7Z5P4 20-300): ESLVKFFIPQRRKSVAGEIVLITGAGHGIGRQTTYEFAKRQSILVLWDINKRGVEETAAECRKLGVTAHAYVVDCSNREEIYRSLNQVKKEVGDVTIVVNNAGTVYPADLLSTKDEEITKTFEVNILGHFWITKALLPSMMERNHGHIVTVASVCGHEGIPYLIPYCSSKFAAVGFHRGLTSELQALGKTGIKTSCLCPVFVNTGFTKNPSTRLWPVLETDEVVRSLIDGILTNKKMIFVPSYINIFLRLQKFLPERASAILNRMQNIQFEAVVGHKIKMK
Type: biochemical
Description: Example A: NADH Detection Assay for Evaluation of HSD17ß13 Activity and Identification of Inhibitors
The fluorescence based Leukotriene B3 (LTB3) assay monitors the fluorescence of NADH, which is generated from NAD+ during the dehydrogenation of the substrate LTB3. The reactions were performed in a 384-well plates (Greiner; #655076) in a 20 μl reaction volume containing the following reagents (final concentrations): 25 μM LTB3 (Cayman; #20109); 3 mM NAD+ (Sigma; #N0623); 125 nM HSD17B13 enzyme (in-house; E. coli expressed His-tagged, purified, soluble protein); […] potassium phosphate buffer, pH 7.4; and 1% DMSO. Reactions were initiated by co-addition of NAD+ and enzyme, and monitored for 1 hour at 26.5° C. Generation of NADH was measured as the fluorescence signal (Excitation at 340 nm and Emission at 445 nm) at 1 hour minus the baseline fluorescence at t=0. Fluorescence signals in the absence of LTB3 (negative control values), were subtracted from all values so that the results reflected substrate-dependent production of NADH. NADH standards were included to allow the conversion of relative fluorescence units into rates of enzyme activity. Enzyme activity in the presence of test compounds was expressed as a percentage of the uninhibited enzyme activity, and plotted versus inhibitor concentration. Non-linear regression was performed using a four-parameter logistic model and GraphPad Prism software (GraphPad Software, La Jolla, CA). Ten concentrations of inhibitor were tested (in the range of 30 μM-2.5 nM), and two independent assessments were performed at each concentration.

pIC50 | Structure (SMILES)
4.52 to 5.00 | Oc1cc(Oc2cccc(-c3ccc(Cl)c(C(F)(F)F)c3)n2)ccc1F [Example 101, 5-((6-(4-chloro-3-(trifluoromethyl)phenyl)pyridin-2-yl)oxy)-2-fluorophenol]
4.52 to 5.00 | COc1ccc(-c2cccc(Oc3ccc(F)c(O)c3)n2)cc1 [Example 102, 2-fluoro-5-((6-(4-methoxyphenyl)pyridin-2-yl)oxy)phenol]
5.00 to 5.30 | Oc1cc(Oc2cccc(-c3cccc(C(F)(F)F)c3)n2)ccc1F [Example 103, 2-fluoro-5-((6-(3-(trifluoromethyl)phenyl)pyridin-2-yl)oxy)phenol]
4.52 to 5.00 | N#Cc1cccc(-c2cccc(Oc3ccc(F)c(O)c3)n2)c1 [Example 104, 3-(6-(4-fluoro-3-hydroxyphenoxy)pyridin-2-yl)benzonitrile]
< 4.52 | COc1cccc(-c2cccc(Oc3ccc4cn[nH]c4c3)n2)c1F [Example 105, 6-{[6-(2-fluoro-3-methoxyphenyl)pyridin-2-yl]oxy}-1H-indazole]
< 4.52 | CC(=O)Nc1cc(Oc2cccc(-c3cccc(O)c3F)n2)ccc1F [Example 106, N-(2-fluoro-5-{[6-(2-fluoro-3-hydroxyphenyl)pyridin-2-yl]oxy}phenyl)acetamide]
< 4.52 | COc1cccc(-c2cccc(Oc3ccc(F)c(NC(C)=O)c3)n2)c1F [Example 107, N-(2-fluoro-5-{[6-(2-fluoro-3-methoxyphenyl)pyridin-2-yl]oxy}phenyl)acetamide]
< 4.52 | COc1cccc(-c2cccc(Oc3ccc(O)nc3)n2)c1F [Example 108, 5-{[6-(2-fluoro-3-methoxyphenyl)pyridin-2-yl]oxy}-1,2-dihydropyridin-2-one]
< 4.52 | CNC(=O)c1cc(Oc2cccc(-c3cccc(OC)c3F)n2)ccc1F [Example 109, 2-fluoro-5-{[6-(2-fluoro-3-methoxyphenyl)pyridin-2-yl]oxy}-N-methylbenzamide]
< 4.52 | COc1cc(Oc2cccc(-c3ccc4cn[nH]c4c3)n2)ccc1F [Example 110, 6-[6-(4-fluoro-3-methoxyphenoxy)pyridin-2-yl]-2H-indazole]
< 4.52 | COc1cccc(-c2cccc(Oc3ccc(F)c(NS(C)(=O)=O)c3)n2)c1F [Example 111, N-(2-fluoro-5-((6-(2-fluoro-3-methoxyphenyl)pyridin-2-yl)oxy)phenyl) methanesulfonamide]
< 4.52 | COc1cccc(-c2cccc(Oc3ccc(=O)n(C(F)F)c3)n2)c1F [Example 112, 1-(difluoromethyl)-5-((6-(2-fluoro-3-methoxyphenyl)pyridin-2-yl)oxy)pyridin-2(1H)-one]
4.52 to 5.00 | O=S(=O)(Nc1cccc(-c2cccc(Oc3ccc(F)c(O)c3)n2)c1)C1CC1 [Example 113, N-(3-(6-(4-fluoro-3-hydroxyphenoxy)pyridin-2-yl)phenyl) cyclopropanesulfonamide]
5.00 to 5.30 | O=S(=O)(Nc1cccc(-c2cccc(Oc3ccc(F)c(O)c3)n2)c1F)C1CC1 [Example 114, N-{2-fluoro-3-[6-(4-fluoro-3-hydroxyphenoxy)pyridin-2-yl]phenyl} cyclopropanesulfonamide]

The remaining lines, values behind:

Structure (SMILES) | pIC50
Oc1cc(Oc2cccc(-c3cc(F)ccc3F)n2)ccc1F [Example 88, 5-{[6-(2,5-difluorophenyl)pyridin-2-yl]oxy}-2-fluorophenol] | ≥ 5.30
Oc1cc(Oc2cccc(-c3cc(F)cc(F)c3)n2)ccc1F [Example 89, 5-{[6-(3,5-difluorophenyl)pyridin-2-yl]oxy}-2-fluorophenol] | ≥ 5.30
Oc1cc(Oc2cccc(-c3ccccc3F)n2)ccc1F [Example 90, 2-fluoro-5-((6-(2-fluorophenyl)pyridin-2-yl)oxy)phenol] | ≥ 5.30
N#Cc1ccc(-c2cccc(Oc3ccc(F)c(O)c3)n2)c(F)c1 [Example 92, 3-fluoro-4-(6-(4-fluoro-3-hydroxyphenoxy)pyridin-2-yl)benzonitrile] | < 4.52
O=S(=O)(Nc1cccc(Oc2cccc(-c3cccc(O)c3F)n2)c1)C1CC1 [Example 93, N-(3-{[6-(2-fluoro-3-hydroxyphenyl)pyridin-2-yl]oxy}phenyl)cyclopropane-sulfonamide] | < 4.52
CS(=O)(=O)NCc1cccc(Oc2cccc(-c3cccc(O)c3F)n2)c1 [Example 94, N-[(3-{[6-(2-fluoro-3-hydroxyphenyl)pyridin-2-yl]oxy}phenyl)methyl]methane-sulfonamide] | < 4.52
COc1cccc(-c2cccc(Oc3cccc(NS(=O)(=O)C4CC4)c3)n2)c1F [Example 95, N-(3-{[6-(2-fluoro-3-methoxyphenyl)pyridin-2-yl]oxy}phenyl)cyclopropane-sulfonamide] | < 4.52
COc1cccc(-c2cccc(Oc3cccc(CNS(C)(=O)=O)c3)n2)c1F [Example 96, N-[(3-{[6-(2-fluoro-3-methoxyphenyl)pyridin-2-yl]oxy}phenyl)methyl]methane-sulfonamide] | < 4.52
Oc1cccc(-c2cccc(Oc3ccc(F)c(O)c3)n2)c1 [Example 97, 2-fluoro-5-{[6-(3-hydroxyphenyl)pyridin-2-yl]oxy}phenol] | 4.52 to 5.00
Oc1cc(Oc2cccc(-c3ccc(C(F)(F)F)cc3)n2)ccc1F [Example 98, 2-fluoro-5-((6-(4-(trifluoromethyl)phenyl)pyridin-2-yl)oxy)phenol] | 4.52 to 5.00
COc1ccccc1-c1cccc(Oc2ccc(F)c(O)c2)n1 [Example 99, 2-fluoro-5-((6-(2-methoxyphenyl)pyridin-2-yl)oxy)phenol] | 4.52 to 5.00
Oc1cc(Oc2cccc(-c3ccc(C(F)(F)F)c(Cl)c3)n2)ccc1F [Example 100, 5-((6-(3-chloro-4-(trifluoromethyl)phenyl)pyridin-2-yl)oxy)-2-fluorophenol] | 4.52 to 5.00

What follows are compounds tested against T1, HSD17B13 enzyme (assay: Estrone detection assay (LC/MS, estradiol to estrone conversion) for HSD17B13 activity). Details: substrate 4 μM Estradiol, 6 mM NAD+, 30 nM HSD17B13 enzyme, 2 hours at 26.5° C.
Type: biochemical
Description: Example B: Estrone Detection Assay for Evaluation of HSD17ß13 Activity and Identification of Inhibitors
The liquid chromatography/mass spectrometry (LC/MS) estrone detection assay monitors the conversion of estradiol to estrone by HSD17B13. This assay was undertaken in a 96wp format (Eppendorf deep well Plate 96/500) in an 80 μl reaction volume containing: 4 μM of Estradiol (E2; Cayman; Ser. No. 10/006,315), 6 mM NAD+(Sigma; #N0623) and 30 nM HSD17B13 enzyme (in-house; E. coli expressed His-tagged, purified, soluble protein) in a reaction containing […] potassium phosphate buffer pH 7.4, with 0.5% vehicle (DMSO). Reactions were incubated for 2 hours at 26.5° C., and estradiol (E2) conversion to estrone (E1) was quantitated by LC-MS/MS based analyte detection for both E2 and E1 using LCMS grade reagents.
Reactions were terminated by the addition of two volumes of acetonitrile (MeCN; LCMS grade; CAS #75/05/8) containing deuterated (D4)-E1 used as internal standard (Clear Synth; #CS-T-54273; 500 ng/mL final concentration). Samples were applied to pre-prepared Bond Elut-C18 extraction cartridges (3 mL; Agilent; Ser. No. 12/102,028), washed and eluted in MeCN. Eluates were dried under nitrogen and re-suspended in 60% methanol (LCMS grade methanol; CAS #67/56/1) before submission for analysis. Aqueous linearity for E2 and E1 were included for quantification.
Analysis of samples was undertaken on a XBridge BEH C18 column (Waters; #186003033) using 0.1% Diethyl Amine in MeCN (mobile phase A; DEA CAS #109-89-7) and 0.1% Diethyl Amine in milli-Q water (mobile phase B) in a 3 min gradient allowing 25% B. Analytes were detected in negative mode using MRM analysis, with E2 having a RT of 1.85 min and E1 having a RT of 2 min. Activity of the enzyme, in the absence of NAD+, was used to evaluate specificity of conversion. Enzyme activity in the presence of test samples was expressed as a percentage of the uninhibited enzyme activity, and plotted versus inhibitor concentration. Non-linear regression was performed using a four-parameter logistic model and GraphPad Prism software (GraphPad Software, La Jolla, CA). All assessments were undertaken in duplicate evaluations and pooled during extraction process and subsequently injected as duplicates for LC-MS/MS analysis.

pIC50 | Structure (SMILES)
≥ 7.00 | Oc1c(F)ccc(Oc2ccnc(-c3ccc(N4CCOCC4)cc3)n2)c1F [Example 115, 2,6-difluoro-3-((2-(4-morpholinophenyl)pyrimidin-4-yl)oxy)phenol]
≥ 7.00 | O=S1(=O)CCN(c2ccc(-c3nccc(Oc4ccc(F)c(O)c4F)n3)cc2)CC1 [Example 116, 4-(4-(4-(2,4-difluoro-3-hydroxyphenoxy)pyrimidin-2-yl)phenyl) thiomorpholine 1,1-dioxide]
6.30 to 7.00 | Oc1c(Cl)ccc(Oc2ccnc(-c3ccc(N4CCOCC4)cc3)n2)c1F [Example 117, 6-chloro-2-fluoro-3-((2-(4-morpholinophenyl)pyrimidin-4-yl)oxy)phenol]
6.00 to 6.30 | Oc1c(Cl)ccc(Oc2ccnc(-c3ccc(N4CCOCC4)cc3)n2)c1Cl [Example 118, 2,6-dichloro-3-((2-(4-morpholinophenyl)pyrimidin-4-yl)oxy)pheno]
